Results as given in publication PMC11694131 (Haematologica, 2024).
pIC50: −log10 of the molar value. Like-named read-outs stand apart in the source and are kept apart here.

Assays:
CCRF-CEM = test: CellTiter-Glo viability, CCRF-CEM; format: cell-based
MOLT4 = test: CellTiter-Glo viability, MOLT4; format: cell-based; details: read-out: IC50, CellTiter-Glo
LOUCY = test: CellTiter-Glo viability, LOUCY; format: cell-based; details: read-out: IC50, CellTiter-Glo
PF-382 = test: CellTiter-Glo viability, PF-382; format: cell-based; details: read-out: IC50, CellTiter-Glo
RS4;11 = test: CellTiter-Glo viability, RS4; format: cell-based; details: for pIC50: Homo sapiens, RS4-11, 24 h, read-out: IC50, CellTiter-Glo
[1] = test system: primary CLL cells co-cultured on HS-5 stromal cells; test: Primary CLL cells co-cultured on HS-5 stroma, Annexin V / TMRM; format: cell-based, human; details: HS-5 co-culture 24 hr
[2] = Single-dose dog PK and platelet toxicity study; format: in vivo; details: 25 mg/kg single oral dose
[3] = test system: treatment-naïve primary CLL cells; test: TMRM / Annexin V apoptosis assay, treatment-naïve primary CLL cells; format: cell-based; details: Homo sapiens, CLL cell, 18 h, read-out: IC50, apoptosis (TMRM and Annexin V)
[4] = test system: venetoclax-relapsed primary CLL cells; test: TMRM / Annexin V apoptosis assay, venetoclax-relapsed primary CLL cells; format: cell-based; details: Homo sapiens, CLL cell, read-out: IC50, apoptosis (TMRM and Annexin V)
in vitro = details: human
platelets = test: 14-day repeat-dose non-GLP platelet toxicity study in dogs; format: in vivo, dog; details: oral once daily
[5] = test system: primary CLL cells cultured with or without NK Tert stroma; test: Primary CLL cells with or without NK Tert stroma, Annexin V / TMRM; format: cell-based; details: Homo sapiens, CLL cell
RS4;11 WT BCL2 xenograft = test: RS4; format: in vivo, mouse; details: 6.25 mg/kg orally once daily for 28 days
[6] = test system: OSU-CLL BCL2 knockout (KO) cells; test: CellTiter-Glo viability, OSU-CLL BCL2 KO; format: cell-based; details: 72 hr, above 200 nM
OSU-CLL xenograft = test: OSU-CLL xenograft; format: in vivo, mouse; details: 50 mg/kg daily oral gavage
[7] = test system: RS4;11 cells with WT BCL2; test: TMRM / Annexin V staining, RS4; format: cell-based; details: Homo sapiens, RS4-11, 72 h, read-out: IC50, TMRM / Annexin V
[8] = read-out: IC50, CLL cells co-cultured with NK Tert cells
[9] = read-out: IC50, CLL cells without stromal protection

Row | SMILES | effect of HS-5 stroma on sensitivity of CLL cells [1] | maximum reduction in platelets [2] [%] | pIC50 [3] | pIC50 [4] | pIC50 (in vitro) | pIC50 [5, 8] | pIC50 [5, 9] | pIC50 (LOUCY; 24 h) | pIC50 (RS4;11) | other results
1 | Cc1c(-c2ccc(N3CCc4cccc(C(=O)Nc5nc6ccccc6s5)c4C3)nc2C(=O)O)cnn1CC12CC3CC(CC(C3)C1)C2 [A-1331852] | – | – | – | – | – | – | – | – | – | pIC50 (CCRF-CEM; read-out: IC50, CellTiter-Glo, 24 hr): 7.86; pIC50 (MOLT4; MOLT4, 24 hr): 8.26; pIC50 (LOUCY; LOUCY, 24 hr): 6.89; pIC50 (PF-382; PF-382, 24 hr): 7.33; IC50, CellTiter-Glo (RS4;11; RS4;11, 24 hr): not effective
2 | CC1(C)CCC(c2ccc(Cl)cc2)=C(CN2CCN(c3ccc(C(=O)NS(=O)(=O)c4ccc(N[C@H](CCN5CCOCC5)CSc5ccccc5)c(S(=O)(=O)C(F)(F)F)c4)cc3)CC2)C1 [navitoclax] | does not alter the sensitivity | 97 | 8.00 | 8.38 | 6.77 | 7.80 | 8.23 | 7.32 | 7.38 | pIC50 (CCRF-CEM; Homo sapiens, 24 h, read-out: IC50, CellTiter-Glo): 6.31; pIC50 (MOLT4; Homo sapiens, MOLT-4, 24 h): 6.54; dose at which platelet toxicity was induced (platelets): > 3 mg/kg; pIC50 (PF-382; Homo sapiens, PF-382, 24 h): 6.42
3 | CC1(C)CCC(CN2CCN(c3ccc(C(=O)NS(=O)(=O)c4ccc(NCC5CCOCC5)c([N+](=O)[O-])c4)c(Oc4cnc5[nH]ccc5c4)c3)CC2)=C(c2ccc(Cl)cc2)C1 [venetoclax] | does not alter the sensitivity | 6 | 8.42 | 7.80 | 4.60 | 8.92 | 9.04 | 6.90 | 8.33 | plasma persistence / clearance at 30 hr post treatment [2]: persisted in plasma; median survival (RS4;11 WT BCL2 xenograft): 59 days; tumor volume upon stopping treatment (RS4;11 WT BCL2 xenograft): relapsed and exhibited increased tumor growth; plateau of killing [6]: 50%; platelet counts throughout treatment (OSU-CLL xenograft): maintained similar platelet counts; survival compared to vehicle (OSU-CLL xenograft): significantly improved the survival; pIC50 [7]: 8.45
